The subject of one data set is skin bleeding. Kind of data set: Rabbit skin bleeding time and volume. The class given is in vivo. To be noted: rabbits; for bleeding time / bleeding volume: skin incision 90 minutes after oral administration, ONO-1600586 5, 15, 50 mg/kg, rivaroxaban 1.5, 5, 15 mg/kg. The protocol:
The protocols of the venous thrombosis and skin bleeding models in rabbits were as follows (Supplementary Figure 2). First, fasting rabbits were orally administered a solvent as a control (n = 10), a FXIa inhibitor (ONO-1600586, 5 mg/kg, n = 10; 15 mg/kg, n = 10; and 50 mg/kg, n = 11), or a FXa inhibitor (rivaroxaban, 1.5 mg/kg, 5 mg/kg, and 15 mg/kg, n = 10 each) using a Nelaton catheter of 5 mm diameter (IZUMO Health Co, Ltd) 90 minutes before thrombus formation. […] Additional anesthesia with one-third amount of the above-mentioned mixture of drugs was administered 80 minutes after the first injection, and all surgical operations proceeded under aseptic conditions. Ninety minutes after administering the solvent, rivaroxaban (1.5, 5, and 15 mg/kg), and ONO-1600586 (5, 15, and 50 mg/kg), skin bleeding was induced using 2 lines of 3 cm length incisions on both legs of the rabbit. Next, wet Kimwipes (Kimberly-Clark Corp) were placed on the injured lesions, and the bleeding time was measured. To measure the bleeding volume, we collected the Kimwipes into a falcon tube filled with 20 mL of saline each, 1 to 2 minutes for 30 minutes, and then removed the Kimwipes. The collected blood was centrifuged at 900 × g for 5 minutes at room temperature, and the supernatant was discarded. One milliliter of distilled water was added to the pellet and then hemolyzed. The bleeding volume was estimated using a spectrophotometer at 540 nm (SpectraMax 190 Microplate Reader, Molecular Devices, LLC). A standard curve was generated through the sequential dilution of rabbit blood. Finally, the number of erythrocytes was measured using a hematology analyzer (XP-300, Sysmex).

The test system of data set [1] is thrombi on the collagen surface. Kind of data set: Ex vivo rabbit blood perfusion in flow chamber on collagen surface (70/s). The following applies: rabbit blood 75 minutes after oral ONO-1600586 50 mg/kg or rivaroxaban 15 mg/kg, shear rate 70/s. The data set is classed as cell-based. The protocol: Blood from rabbits 75 minutes postadministration of a solvent as a control (n = 5), a FXIa inhibitor (ONO-1600586, 50 mg/kg, n = 5), or a FXa inhibitor (rivaroxaban, 15 mg/kg, n = 5) was collected using 21-gauge needles into plastic syringes containing corn trypsin inhibitor (Molecular Innovations; final concentration 20 μg/mL) and a specific FXa inhibitor, Arixtra (Organon Sanofi-Synthelabo, final concentration 6 μg/mL). Anticoagulated whole blood was stored at room temperature and used for perfusion studies within 1 hour of collection. Next, mepacrine (quinacrine dihydrochloride, Sigma-Aldrich, final concentration 5 μM) was added to the blood before perfusion for platelet labeling, which enables the visualization of platelet-surface interaction through epifluorescence videomicroscopy. Collagen from the horse tendon (Collagen Reagent HORM, Takeda Pharmaceutical, 20 μg/mL) was immobilized on glass coverslips (24 × 50 mm) in parallel-plate flow chambers, as previously described. Blood samples were perfused through the chamber using a syringe pump (KDS100, KD Scientific Inc) at a constant flow rate (15 mL/h) to achieve wall shear rates of 70/s. Platelets interacting with the immobilized collagen were visualized using an inverted stage epifluorescence microscope (IX71, OLYMPUS). Images were captured at 3, 6, and 9 minutes after perfusion with a photosensitive color CCD camera (DP70, Olympus), and surface covering areas were semiquantified using a morphometric analysis system (WinROOF, Mitani).
After perfusion, coverslips were immediately fixed in 95% alcohol for 1 hour at room temperature, stained using antibodies for fibrin (Millipore), and faintly counterstained with Meyer’s hematoxylin. […] Finally, the number of attached cells with multilobulated nuclei was counted as the neutrophil number in 5 fields under a 20× objective lens and expressed as the number of neutrophils per mm^2.

The subject of data set [2] is human thrombus formation in vitro. Kind of data set: In vitro human blood perfusion in flow chamber on collagen and tissue factor (70/s). The data set is classed as cell-based. To be noted: rivaroxaban 1 μmol/L, low-shear 70/s. The protocol: The Ethics Committee of the University of Miyazaki approved this study (approval number O-1160). The Collagen Reagent HORM (Takeda Pharmaceutical, 20 μg/mL) and recombinant tissue factor (Dade Innovin, ×1000, Siemens) were immobilized on glass coverslips (24 × 50 mm) in parallel-plate flow chambers, as described above. Blood from healthy human volunteers who were not on medication was collected using 21-gauge needles into plastic syringes containing a corn trypsin inhibitor (Molecular Innovations, final concentration 10 μg/mL). Anticoagulated whole blood was used for the perfusion. The solvent (n = 10), FXIa inhibitor (ONO-1600586, 3 μmol/L, n = 10) or FXa inhibitor (rivaroxaban, 1 μmol/L, n = 10), and mepacrine (Sigma-Aldrich, final concentration 5 μM) were added to the blood before perfusion. Blood samples were perfused through the chamber using a syringe pump (KDS100, KD Scientific Inc) at a constant flow rate (15 mL/h) to achieve wall shear rates of 70/s. Finally, the surface covering area, fibrin-immunopositive area, and the number of neutrophils were analyzed as described above.
The pre-and postperfused blood samples were collected into a tube containing 3.8% sodium citrate anticoagulant (9:1 v/v). Plasma samples were centrifuged at 1500 × g for 15 minutes at room temperature. FXIa and FXa activities were measured using an automatic blood coagulation analyzer (ACL-TOP, Werfen), as well as FXI-deficient plasma (HemosIL Factor XI Deficient Plasma and HemosIL SynthASil APTT, Werfen) and FX-deficient plasma (HemosIL Factor X Deficient Plasma and HemosIL RecombiPlasTin, Werfen). The plasma levels of prothrombin fragment 1 + 2 were measured using an enzyme-linked immunosorbent assay (Enzygnost F1 + 2 Monoclonal, Siemens).

Entries after “also recorded” stand apart in the source; their conditions may differ.

Take `O=C(NC[C@H]1CN(c2ccc(N3CCOCC3=O)cc2)C(=O)O1)c1ccc(Cl)s1` [rivaroxaban]: in the data set on skin bleeding (15 mg/kg oral), the “bleeding time compared with the control” value is “significantly prolonged” and the “bleeding volume compared with the control” value is “increased”. Moreover, in the data set with skin bleeding, the bleeding time result is “prolonged bleeding time” and the bleeding volume entry is listed as “increased bleeding volume dose-dependently”. Moreover, in the data set with skin bleeding (listed as Rivaroxaban), the bleeding time entry is listed as “dose-dependently prolonged” and the bleeding volume result is given as “increased”. In data set [1], the “fibrin formation (fibrin-immunopositive area) in the flow chamber” value is recorded as “markedly decreased; also recorded: Absence or little fibrin formation” and the “neutrophil attachment on the thrombus” value was “did not affect”. Further, in data set [1] (3, 6, 9 minutes), the surface covering areas entry was “did not differ”. Besides, the “fibrin formation in the flow chamber” value in data set [2] (ONO-1600586 3 μM) is recorded as “markedly decreased”. In addition, in data set [2] (ONO-1600586 3 μmol/L), the leukocyte adhesion entry was “did not affect”, the “plasma levels of prothrombin fragment 1 + 2 after perfusion” value is recorded as “reduced” and the platelet covering area result is on record as “did not affect”. The “FXa activity in the plasma after perfusion” value in data set [2] is given as “reduced”.

(Values after article PMC11999338, “Factor XI localization in human deep venous thrombus and function of activated factor XI on venous thrombus formation and hemostasis” (Research and Practice in Thrombosis and Haemostasis, 2025).)
